# What was measured:
# PKC delta (pPKCd, S299) = assay: pPKC delta in tumour biopsies (Sally Sue microcapillary electrophoresis); format: in vivo, human; settings: QD schedule
# Text: (§1) Fresh metastatic tumour biopsies were collected at baseline (prior to first dose) and on treatment at C1D15 to evaluate the modulation of PKC substrate proteins in tumours following exposure to LXS196 and to perform exploratory transcriptome and targeted DNA sequencing. Whole blood samples (peripheral blood mononuclear cells; PBMCs) were collected pre-dose on C1D1 and D15, and at various time points post-dose on C1D1, D2, D3, D15 and D16 to evaluate the modulation of PKC substrate proteins in a surrogate tissue. Owing to the exploratory nature of this phase I study, formal statistical tests were not planned to be performed. Data are presented using descriptive statistics and visualisations. Continuous variables are described with the mean and range. […]
# (§2) Custom assays were developed to measure the status of the PKC pathway. In brief, tumour tissue was homogenised in lysis buffer, and total protein concentrations were determined using a bicinchoninic acid (BCA) assay (Pierce). […] Total and phosphorylated PKCdelta (PKCd; pPKCd, phosphorylated at S299) levels were determined using microcapillary electrophoresis on the Sally Sue platform (Protein Simple, San Jose, CA, USA). Area under the peaks corresponding to the target was measured and used for further calculation. […]
# Total and phosphorylated PKC delta were measured in all feasible tumour biopsies. […] The normalised PKC delta is calculated as follows: […]
# MARCKS (pMARCKS) = assay: pMARCKS in tumour biopsies (Meso Scale Discovery); format: in vivo, human; settings: QD schedule
# Text: as §1, §2
# Total and phosphorylated MARCKS were measured in all feasible tumour biopsies. […] The normalised MARCKS is calculated as follows: […]
# 92.1 human UM xenograft = system: 92.1 human UM xenograft; parameters: method as in PMID 27507190; settings: doses below MTD; cited from earlier work
# [1] = system: UM cell lines containing mutant GNAQ or GNA11; settings: cited from earlier work
# pPKC delta = pPKC delta in PBMCs; format: in vivo, human; settings: all dose levels
# Text: Fresh metastatic tumour biopsies were collected at baseline (prior to first dose) and on treatment at C1D15 to evaluate the modulation of PKC substrate proteins in tumours following exposure to LXS196 and to perform exploratory transcriptome and targeted DNA sequencing. Whole blood samples (peripheral blood mononuclear cells; PBMCs) were collected pre-dose on C1D1 and D15, and at various time points post-dose on C1D1, D2, D3, D15 and D16 to evaluate the modulation of PKC substrate proteins in a surrogate tissue. Owing to the exploratory nature of this phase I study, formal statistical tests were not planned to be performed. Data are presented using descriptive statistics and visualisations. Continuous variables are described with the mean and range. Categorical variables are described using counts and percentages. PFS is described using the Kaplan–Meier (KM) method.
compound,measurement,setting,value
CC1(N)CCN(c2cccnc2NC(=O)c2nc(-c3ncccc3C(F)(F)F)cnc2N)CC1 [LXS196],"pPKC delta, mean (range) percentage change from baseline to C1D15 (normalised ratio)","PKC delta (pPKCd, S299)","−68.1 (−91.4, −28.6) %"
same,"pMARCKS, mean (range) percentage change from baseline to C1D15 (normalised ratio)",MARCKS (pMARCKS),"−39.7 (−89.7, 199) %"
same,Tumour effect as single agent,92.1 human UM xenograft,tumour regression
same,Cellular activity,[1],cellular activity restricted to UM cell lines containing mutant GNAQ or GNA11
same,Time post-dose to reduction in pPKC delta in PBMCs,pPKC delta,≤ 6 h
